# Experimental data as given in ChEMBL document CHEMBL3612058, “Synthesis and biological evaluation of a new series of 2-amino-3-aroyl thiophene derivatives as agonist allosteric modulators of the A1 adenosine receptor. A position-dependent effect study” (Eur J Med Chem, 2015).
# What was measured:
# [1] = target: T1, Adenosine receptor A1 (Homo sapiens) (UniProt P30542); test: Positive allosteric enhancement of human cloned adenosine A1 receptor expressed in CHO cells assessed as inhibition of forskolin-induced cAMP accumulation at 100 nM using [3H]-cAMP by scintillation counting relative to control in presence of 1 pM of CCPA; type: functional, cell-based
# T1 sequence (whole entry): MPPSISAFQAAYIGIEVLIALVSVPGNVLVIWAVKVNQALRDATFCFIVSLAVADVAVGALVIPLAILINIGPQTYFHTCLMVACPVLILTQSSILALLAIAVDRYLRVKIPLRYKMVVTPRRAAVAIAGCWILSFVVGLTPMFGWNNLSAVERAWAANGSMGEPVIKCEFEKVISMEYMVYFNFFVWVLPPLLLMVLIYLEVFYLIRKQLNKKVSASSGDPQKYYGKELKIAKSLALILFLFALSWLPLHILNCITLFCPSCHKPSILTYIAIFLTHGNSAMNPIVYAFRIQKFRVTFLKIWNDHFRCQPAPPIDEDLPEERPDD
# [2] = target: T1, Adenosine receptor A1 (Homo sapiens); test: Binding affinity to human adenosine A1 receptor expressed in CHO cells assessed as fold Ki shift of CCPA at 10 uM after 90 mins by [3H]-CCPA displacement assay relative to control; type: cell-based
# [3] = target: T1, Adenosine receptor A1 (Homo sapiens); test: Binding affinity to human adenosine A1 receptor expressed in CHO cells assessed as fold Bmax shift of [3H]-CCPA at 10 uM after 90 mins by [3H]-CCPA binding assay relative to control; type: cell-based
# [4] = Displacement of [3H]-ZM241385 from human adenosine A2 receptor expressed in CHO cells at 10 uM after 120 mins by scintillation counting; type: cell-based
# [5] = target: T1, Adenosine receptor A1 (Homo sapiens); test: Positive allosteric enhancement of human cloned adenosine A1 receptor expressed in CHO cells assessed as inhibition of forskolin-induced cAMP accumulation at 10 uM using [3H]-cAMP by scintillation counting relative to control; type: functional, cell-based
# [6] = target: T1, Adenosine receptor A1 (Homo sapiens); test: Displacement of [3H]DPCPX from human adenosine A1 receptor expressed in CHO cells at 10 uM after 120 mins by scintillation counting; type: cell-based
# [7] = target: T2, Adenosine receptor A3 (Homo sapiens) (UniProt P0DMS8); test: Displacement of [3H]-MRE-3008-F20 from human adenosine A3 receptor expressed in CHO cells at 10 uM after 120 mins by scintillation counting; type: cell-based
# T2 sequence (whole entry): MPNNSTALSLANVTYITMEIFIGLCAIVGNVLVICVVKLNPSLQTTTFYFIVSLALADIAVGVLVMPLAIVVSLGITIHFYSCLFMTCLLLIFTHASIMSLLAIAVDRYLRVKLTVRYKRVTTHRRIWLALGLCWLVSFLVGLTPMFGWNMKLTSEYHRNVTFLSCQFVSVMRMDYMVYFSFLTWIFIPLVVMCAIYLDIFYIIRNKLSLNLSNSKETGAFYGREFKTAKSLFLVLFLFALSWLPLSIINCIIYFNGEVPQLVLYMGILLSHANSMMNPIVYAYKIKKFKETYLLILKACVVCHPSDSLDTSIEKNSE
# [8] = target: T1, Adenosine receptor A1 (Homo sapiens); test: Ratio of PD81723 to compound for positive allosteric enhancement of human cloned adenosine A1 receptor expressed in CHO cells assessed as inhibition of forskolin-induced cAMP accumulation at 10 uM using [3H]-cAMP by scintillation counting; type: functional, cell-based
Compound,inhibition [1],fold change (FC) [2],fold change (FC) [3],inhibition [4],inhibition [5],inhibition [6],inhibition [7],Ratio [8]
Nc1sc(Cc2ccccc2)c(-c2ccccc2)c1C(=O)c1ccc(Cl)cc1,35%,1.9,2.6,< 10%,34%,< 10%,< 10%,
Nc1sc(-c2ccc(Cl)cc2)c(Cc2ccccc2)c1C(=O)c1ccc(Cl)cc1,67%,8.4,7.2,< 10%,69%,< 10%,< 10%,3
Nc1sc(-c2ccccc2)c(Cc2ccc(F)cc2)c1C(=O)c1ccc(Cl)cc1,57%,5.4,6.3,< 10%,58%,< 10%,< 10%,3
Cc1ccc(Cc2c(-c3ccccc3)sc(N)c2C(=O)c2ccc(Cl)cc2)cc1,58%,5.1,5.6,< 10%,56%,< 10%,< 10%,3
COc1ccc(-c2sc(N)c(C(=O)c3ccc(Cl)cc3)c2Cc2ccc(Cl)cc2)cc1,48%,3.9,5,< 10%,49%,< 10%,< 10%,3
COc1ccc(Cc2c(-c3ccccc3)sc(N)c2C(=O)c2ccc(Cl)cc2)c(OC)c1,53%,4.2,5.6,< 10%,52%,< 10%,< 10%,3
COc1cc(Cc2c(-c3ccccc3)sc(N)c2C(=O)c2ccc(Cl)cc2)cc(OC)c1OC,43%,3.8,4.3,< 10%,47%,< 10%,< 10%,3
CC(C)Oc1ccc(Cc2sc(N)c(C(=O)c3ccc(Cl)cc3)c2-c2ccccc2)cc1,26%,2,1.8,< 10%,26%,< 10%,< 10%,
Cc1ccc(Cc2c(-c3ccc(F)cc3)sc(N)c2C(=O)c2ccc(Cl)cc2)cc1,62%,5.6,6.5,< 10%,59%,< 10%,< 10%,3
COc1ccc(Cc2sc(N)c(C(=O)c3ccc(Cl)cc3)c2-c2ccccc2)cc1,36%,2,2.8,< 10%,35%,< 10%,< 10%,
Nc1sc(-c2ccc(Cl)cc2)c(CN2CCN(c3ccc(Cl)cc3)CC2)c1C(=O)c1ccc(Cl)cc1,,8.7,11.4,,,,,
Nc1sc(Cc2ccc(OC(F)(F)F)cc2)c(-c2ccccc2)c1C(=O)c1ccc(Cl)cc1,25%,1.8,1.8,< 10%,24%,< 10%,< 10%,
COc1ccc(Cc2c(-c3ccc(OC)cc3)sc(N)c2C(=O)c2ccc(Cl)cc2)cc1,50%,4.6,5.1,< 10%,52%,< 10%,< 10%,3
CC(C)(C)Cc1c(-c2ccc(Cl)cc2)sc(N)c1C(=O)c1ccc(Cl)cc1,,4,5.8,,,,,
COc1c(C)cc(Cc2c(-c3ccccc3)sc(N)c2C(=O)c2ccc(Cl)cc2)cc1C,61%,4.6,6.6,< 10%,59%,< 10%,< 10%,3
CC(C)Oc1ccc(Cc2c(-c3ccccc3)sc(N)c2C(=O)c2ccc(Cl)cc2)cc1,67%,5.8,7.6,< 10%,65%,< 10%,< 10%,3
CCOc1ccc(Cc2c(-c3ccccc3)sc(N)c2C(=O)c2ccc(Cl)cc2)cc1,69%,8,9.1,< 10%,68%,< 10%,< 10%,3
Nc1sc(-c2ccccc2)c(Cc2ccc(OC(F)(F)F)cc2)c1C(=O)c1ccc(Cl)cc1,69%,6.6,8.2,< 10%,68%,< 10%,< 10%,3
COc1cccc(Cc2c(-c3ccccc3)sc(N)c2C(=O)c2ccc(Cl)cc2)c1,63%,6.9,7.3,< 10%,66%,< 10%,< 10%,3
CSc1ccc(Cc2c(-c3ccccc3)sc(N)c2C(=O)c2ccc(Cl)cc2)cc1,65%,6.3,6.6,< 10%,63%,< 10%,< 10%,3
Nc1sc(-c2ccc(F)cc2)c(Cc2ccc(Cl)cc2)c1C(=O)c1ccc(Cl)cc1,55%,4.1,5.3,< 10%,53%,< 10%,< 10%,3
Nc1sc(Cc2cccc3ccccc23)c(-c2ccccc2)c1C(=O)c1ccc(Cl)cc1,22%,1.4,1.5,< 10%,21%,< 10%,< 10%,
Cc1ccc(Cc2c(-c3ccc(Cl)cc3)sc(N)c2C(=O)c2ccc(Cl)cc2)cc1,69%,7.2,8.6,< 10%,71%,< 10%,< 10%,3
COc1ccc(Cc2c(-c3ccccc3)sc(N)c2C(=O)c2ccc(Cl)cc2)cc1,74%,8.9,9.4,< 10%,71%,< 10%,< 10%,3
COc1ccc(Cc2sc(N)c(C(=O)c3ccc(Cl)cc3)c2-c2ccccc2)cc1C,30%,2.4,2.7,< 10%,31%,< 10%,< 10%,
CCOc1ccc(Cc2sc(N)c(C(=O)c3ccc(Cl)cc3)c2-c2ccccc2)cc1,21%,1.5,1.5,< 10%,22%,< 10%,< 10%,
Nc1sc(-c2ccccc2)c(Cc2cccc3ccccc23)c1C(=O)c1ccc(Cl)cc1,58%,4.3,6.1,< 10%,57%,< 10%,< 10%,
Nc1sc(Cc2ccc(C(F)(F)F)cc2)c(-c2ccccc2)c1C(=O)c1ccc(Cl)cc1,24%,1.6,1.8,< 10%,25%,< 10%,< 10%,
COc1cccc(Cc2sc(N)c(C(=O)c3ccc(Cl)cc3)c2-c2ccccc2)c1,31%,1.9,2.6,< 10%,32%,< 10%,< 10%,
